Results on one substance are retold here after patent US20240118280A1 (priority 2022, published 2024).

Entries after “also recorded” stand apart in the source; their conditions may differ.

The target of the test is T1, human EGFR kinase (Homo sapiens, UniProt P00533).
T1 construct: The EGFR kinase domain is incubated with Ibrutinib-yne or a DMSO control at 37° C. for 1 hour; made in house
The test is described as follows: Activity-based protein fingerprinting: covalent labelling of EGFR kinase by chemical probe (PAGE, fluorescent imaging, LC-MS). Type of test: binding. The protocol:
The EGFR kinase domain is incubated with Ibrutinib-yne or a DMSO control at 37° C. for 1 hour. The EGFR kinase domain bound to Ibrutinib-yne is exposed to cysteine reduction and capping using TCEP and chloroacetamide at 37° C. for 1 hour. The product is desalted with a 7 kDa zeba column and exposed to proteolytic digestion by trypsin at 37° C. for 16 hours. The product is further conjugated with bis-biotin-DNA-SS-azide at room temperature for 30 minutes and finally exposed to DTT at 65° C. for 10 minutes.
FIGS. 5A-5C show LC-MS plots of DMSO control (FIG. 5A), Ibrutinib-yne (FIG. 5B), and Ibrutinib-yne with a DNA control molecule and DTT (FIG. 5C). The blue box represents unmodified peptide, the green box represents peptide bound to Ibrutinib-yne, and the red box represents peptide-Ibrutinib-yne-DNA adduct following disulfide reduction.
Using the steps of Example 1, EGFR kinase was detected using activity-based protein fingerprinting. The commercially available drug analog Ibrutinib-yne, which binds to the catalytic cysteine of EGFR comprises an electrophilic warhead and an alkyne moiety for the CLICK handle processing step. Purified human EGFR kinase was generated (FIG. 2A) and exposed to Ibrutinib-yne (FIG. 2B). […] The target peptide detected by this protocol LLGIC(Alk)[…]) (SEQ ID NO:1) was detected by LC-MS (FIGS. 5A-5C).

On to Ibrutinib-yne, for which the “LC-MS detection of target peptide LLGIC(Alk)[…] (SEQ ID NO:1)” value (after TCEP/chloroacetamide capping and trypsin digestion, vs DMSO control) is on record as “detected only in its modified state”. Besides, the “probe-EGFR kinase complex observed by Coomassie Blue staining and fluorescent imaging (AF647-azide)” value (probe or DMSO control incubated with EGFR at 37° C. for 1 hour, PAGE) is “desired complex was observed; also recorded: only the protein bearing Ibrutinib-yne reacted with AF647-azide”.
